Assay results taken from patent US11629143B2, “HipK4 inhibitors and uses thereof” (Vibliome Therapeutics, LLC, priority 2020, dated 2023).

What was measured:
Test in all cases: Kinase panel (mobility shift)
Type in all cases: biochemical
HIPK4 = molecular target: T1, HIPK4 (Homo sapiens, UniProt Q8NE63)
T1 sequence (Q8NE63 1-616): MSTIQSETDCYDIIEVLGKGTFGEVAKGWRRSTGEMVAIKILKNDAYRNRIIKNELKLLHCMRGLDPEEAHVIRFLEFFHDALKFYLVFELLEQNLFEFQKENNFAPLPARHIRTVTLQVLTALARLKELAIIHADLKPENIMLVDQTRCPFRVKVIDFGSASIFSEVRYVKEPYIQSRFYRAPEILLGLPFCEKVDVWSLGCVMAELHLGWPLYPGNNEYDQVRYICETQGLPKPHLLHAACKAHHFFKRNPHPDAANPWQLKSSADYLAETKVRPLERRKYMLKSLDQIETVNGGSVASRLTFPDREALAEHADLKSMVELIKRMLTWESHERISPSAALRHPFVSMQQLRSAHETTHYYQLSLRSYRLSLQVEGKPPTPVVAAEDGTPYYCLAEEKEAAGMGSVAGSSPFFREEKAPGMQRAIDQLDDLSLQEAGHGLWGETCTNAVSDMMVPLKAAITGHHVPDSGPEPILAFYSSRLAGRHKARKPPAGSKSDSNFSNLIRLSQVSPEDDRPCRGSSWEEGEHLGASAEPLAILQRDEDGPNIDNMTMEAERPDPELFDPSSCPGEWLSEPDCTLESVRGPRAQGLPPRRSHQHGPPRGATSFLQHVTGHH
Method in brief: (§1)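 Each kinase was incubated with a fluorescently labeled substrate and compound in a standard reaction mix. After the reaction was stopped, product and substrate were separated on microfluidic chips by electrophoretic mobility shift. Activity came from comparing product and substrate peak fluorescence, graded A (95% or greater), B (90%-94%) or C (80%-89%) at 5 um.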

TAOK2 = molecular target: T2, TAOK2 (Homo sapiens, UniProt Q9UL54)
T2 sequence (Q9UL54 1-1235): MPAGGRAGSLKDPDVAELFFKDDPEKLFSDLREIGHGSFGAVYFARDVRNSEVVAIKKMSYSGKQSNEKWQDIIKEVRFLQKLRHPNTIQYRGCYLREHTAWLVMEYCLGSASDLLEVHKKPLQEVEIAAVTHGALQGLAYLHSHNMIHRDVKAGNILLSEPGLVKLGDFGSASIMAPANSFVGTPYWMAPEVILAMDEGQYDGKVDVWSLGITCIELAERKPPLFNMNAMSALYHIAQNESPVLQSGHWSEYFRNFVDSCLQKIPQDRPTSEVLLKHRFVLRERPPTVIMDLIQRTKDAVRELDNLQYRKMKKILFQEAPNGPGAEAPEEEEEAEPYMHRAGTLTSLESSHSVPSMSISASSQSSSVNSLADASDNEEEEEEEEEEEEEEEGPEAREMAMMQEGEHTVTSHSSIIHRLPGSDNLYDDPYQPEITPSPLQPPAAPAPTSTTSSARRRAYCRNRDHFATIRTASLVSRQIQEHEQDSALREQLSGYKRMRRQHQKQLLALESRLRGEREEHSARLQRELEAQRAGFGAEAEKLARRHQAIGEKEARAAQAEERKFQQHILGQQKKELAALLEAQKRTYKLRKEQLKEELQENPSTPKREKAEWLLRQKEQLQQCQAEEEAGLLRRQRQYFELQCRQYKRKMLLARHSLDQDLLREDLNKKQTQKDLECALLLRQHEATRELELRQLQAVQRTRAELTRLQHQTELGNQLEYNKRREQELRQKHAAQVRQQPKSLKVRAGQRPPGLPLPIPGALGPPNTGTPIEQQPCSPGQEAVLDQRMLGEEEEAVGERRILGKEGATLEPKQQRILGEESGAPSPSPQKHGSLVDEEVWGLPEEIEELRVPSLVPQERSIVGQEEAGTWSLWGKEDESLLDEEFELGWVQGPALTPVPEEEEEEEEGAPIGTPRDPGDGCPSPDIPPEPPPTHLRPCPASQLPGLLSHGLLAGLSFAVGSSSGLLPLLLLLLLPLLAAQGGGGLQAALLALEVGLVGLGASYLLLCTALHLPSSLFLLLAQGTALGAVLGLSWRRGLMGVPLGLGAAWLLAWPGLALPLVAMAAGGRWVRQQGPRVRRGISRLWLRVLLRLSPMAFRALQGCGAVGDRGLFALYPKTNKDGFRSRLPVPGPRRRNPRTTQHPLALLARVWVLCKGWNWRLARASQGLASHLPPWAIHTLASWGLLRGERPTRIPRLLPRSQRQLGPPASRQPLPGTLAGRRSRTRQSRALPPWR
Method in brief: as §1

P38-b = P38-b (Homo sapiens, UniProt Q15759)
Sequence of P38-b (Q15759 whole entry, species assumed): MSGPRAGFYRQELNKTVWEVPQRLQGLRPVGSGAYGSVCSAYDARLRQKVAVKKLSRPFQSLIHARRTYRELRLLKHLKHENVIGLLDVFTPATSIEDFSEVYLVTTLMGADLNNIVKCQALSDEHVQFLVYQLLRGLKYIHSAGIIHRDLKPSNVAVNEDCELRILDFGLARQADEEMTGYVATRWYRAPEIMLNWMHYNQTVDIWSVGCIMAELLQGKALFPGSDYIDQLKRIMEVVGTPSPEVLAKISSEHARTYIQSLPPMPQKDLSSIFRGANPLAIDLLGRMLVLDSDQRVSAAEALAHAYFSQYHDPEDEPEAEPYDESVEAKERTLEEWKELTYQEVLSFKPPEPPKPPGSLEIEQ
Method in brief: as §1

TYRO3 = molecular target: T3, TYRO3 (Homo sapiens, UniProt Q06418)
T3 sequence (Q06418 41-890): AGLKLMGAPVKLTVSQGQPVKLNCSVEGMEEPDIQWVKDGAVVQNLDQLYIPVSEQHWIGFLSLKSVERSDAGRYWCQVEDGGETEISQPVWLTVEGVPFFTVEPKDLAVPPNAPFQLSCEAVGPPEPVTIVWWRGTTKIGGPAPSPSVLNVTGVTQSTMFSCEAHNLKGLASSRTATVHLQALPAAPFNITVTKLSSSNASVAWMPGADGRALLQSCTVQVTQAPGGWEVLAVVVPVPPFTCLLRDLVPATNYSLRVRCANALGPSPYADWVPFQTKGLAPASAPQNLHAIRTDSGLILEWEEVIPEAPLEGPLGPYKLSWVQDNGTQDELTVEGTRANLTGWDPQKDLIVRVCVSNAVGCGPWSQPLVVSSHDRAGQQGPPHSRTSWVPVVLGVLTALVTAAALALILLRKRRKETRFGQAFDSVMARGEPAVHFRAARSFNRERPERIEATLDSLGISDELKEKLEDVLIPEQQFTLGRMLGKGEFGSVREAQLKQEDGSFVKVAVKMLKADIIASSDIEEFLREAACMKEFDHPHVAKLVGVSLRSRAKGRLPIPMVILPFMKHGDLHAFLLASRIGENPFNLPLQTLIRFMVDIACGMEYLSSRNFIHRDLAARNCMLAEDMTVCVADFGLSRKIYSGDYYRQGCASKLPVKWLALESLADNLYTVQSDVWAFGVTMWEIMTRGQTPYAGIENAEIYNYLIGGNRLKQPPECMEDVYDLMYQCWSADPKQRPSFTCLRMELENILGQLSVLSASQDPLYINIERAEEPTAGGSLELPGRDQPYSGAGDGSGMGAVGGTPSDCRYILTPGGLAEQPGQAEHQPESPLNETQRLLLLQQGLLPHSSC
Method in brief: as §1

| inhibition at 5 µM (HIPK4) | inhibition at 5 µM (TAOK2) | inhibition at 5 µM (P38-b) | inhibition at 5 µM (TYRO3) | SMILES |
| --- | --- | --- | --- | --- |
| ≥ 95% | < 50% | < 50% | 50 to 79% | COc1nc(C(=O)Nc2ccc(Oc3ccnc(C(=O)NC4COC4)c3)c(F)c2)c(-c2ccc(F)cc2)o1 [Compound 39] |
| ≥ 95% | < 50% | < 50% | < 50% | CSc1nc(C(=O)Nc2ccc(Oc3ccnc(C(=O)NCC(F)(F)F)c3)c(F)c2)c(-c2ccc(F)cc2)o1 [Compound 40] |
| ≥ 95% | < 50% | 80 to 89% | 50 to 79% | CSc1nc(C(=O)Nc2ccc(Oc3ccnc(C(=O)NCCN(C)C)c3)c(F)c2)c(-c2ccc(F)cc2)o1 [Compound 41] |
| ≥ 95% | < 50% | 80 to 89% | < 50% | CSc1nc(C(=O)Nc2ccc(Oc3ccnc(C(=O)NC4CCN(C)CC4)c3)c(F)c2)c(-c2ccc(F)cc2)o1 [Compound 42] |
| ≥ 95% | < 50% | < 50% | < 50% | COc1nc(C(=O)Nc2ccc(Oc3ccnc(C(=O)NCC(F)(F)F)c3)c(F)c2)c(-c2ccc(F)cc2)o1 [Compound 43] |

The next lines start with the molecule.

| SMILES | inhibition at 5 µM (HIPK4) | inhibition at 5 µM (TAOK2) | inhibition at 5 µM (P38-b) | inhibition at 5 µM (TYRO3) |
| --- | --- | --- | --- | --- |
| CSc1nc(C(=O)Nc2ccc(Oc3ccnc(C(=O)NC4COC4)c3)c(F)c2)c(-c2ccc(F)cc2)o1 [Compound 31] | ≥ 95% | < 50% | < 50% | 50 to 79% |
| CNC(=O)c1cc(Oc2ccc(NC(=O)c3nc(OC4CC4)oc3-c3ccc(F)cc3)cc2F)ccn1 [Compound 32] | ≥ 95% | 50 to 79% | 50 to 79% | 90 to 94% |
| [2H]C([2H])([2H])NC(=O)c1cc(Oc2ccc(NC(=O)c3nc(SC)oc3-c3ccc(F)c(F)c3)cc2F)ccn1 [Compound 33] | ≥ 95% | < 50% | < 50% | 50 to 79% |
| CNC(=O)c1cc(Oc2ccc(NC(=O)c3nc(SC(C)C)oc3-c3ccc(F)cc3)cc2F)ccn1 [Compound 34] | ≥ 95% | 50 to 79% | 50 to 79% | 80 to 89% |
| [2H]C([2H])([2H])NC(=O)c1cc(Oc2ccc(NC(=O)c3nc(SC)oc3-c3ccc(F)s3)cc2F)ccn1 [Compound 35] | ≥ 95% | < 50% | < 50% | 50 to 79% |
| CNC(=O)c1ccc(Oc2ccc(NC(=O)c3nc(Cl)oc3-c3ccc(F)cc3)c(F)c2)cn1 [Compound 36] | 80 to 89% | < 50% | < 50% | < 50% |
| CSc1nc(C(=O)Nc2ccc(Oc3ccnc(C(=O)NC4COC4)c3)c(F)c2)c(-c2ccc(F)c(F)c2)o1 [Compound 37] | ≥ 95% | < 50% | < 50% | < 50% |
| CNC(=O)c1cc(Oc2ccc(NC(=O)c3nc(OCC(F)(F)F)oc3-c3ccc(F)cc3)cc2F)ccn1 [Compound 38] | ≥ 95% | < 50% | < 50% | 50 to 79% |
